83 compounds from a melting point compilation (Tetko et al.) can be followed below.

For orientation: melting point means the temperature of the solid-liquid transition.

Each structure is given as a SMILES string.

As for `O=C(O)C1CCCN1S(=O)(=O)c1ccccc1` (stereo not drawn), the melting point was in the range of 79 to 81 °C.
The figure for `O=C(Nc1cccc(F)c1)OCC(F)(F)F` is 50 to 52 °C; for `O=C(O)COc1ccc(C(=O)c2ccccc2Cl)cc1` it is 141 to 143 °C.
`Cc1c(S(=O)(=O)Cl)sc2cc(Cl)ccc12` gave a melting point of 83 to 85 °C.
The figure for `O=C1CC2(CCCC2)Oc2ccccc21` is 35 to 37 °C; for `Cn1cnnc1Sc1ccc(N)cc1Cl` it is 168 to 170 °C; for `COc1ccc2c(-c3ccccc3)cc(S)nc2c1` it is 180 to 182 °C.
Consider `NS(=O)(=O)c1cc([N+](=O)[O-])ccc1Br`, for which the melting point was 204 to 206 °C.
The result for `N#Cc1ccc(OCC(=O)O)c(Cl)c1` reads 178 to 180 °C; that for `Nc1ncccc1OCc1cccnc1`, 104 to 106 °C; that for `Cc1cc(Cl)c2cccc([N+](=O)[O-])c2n1`, 109 to 111 °C.
`Nc1ccccc1OCC(=O)N1CCOCC1` gave a melting point of 111 to 113 °C.
Consider `COc1ccc(N2CC(C(=O)O)CC2=O)cc1OC` (stereo not drawn), for which the melting point lay in the range of 201 to 203 °C.
Take `N#Cc1cccc(OCc2ccoc2C(=O)O)c1`: the melting point was 177 to 179 °C.
`O=C(O)C1CCCN(C(=O)c2ccc(Br)c(F)c2)C1` (stereo not drawn): the melting point lay within 157 to 159 °C.
The figure for `CCOc1ccc(OCCOc2ccc(C=CC(=O)O)cc2OCC)cc1` is 182 to 184 °C; for `NC(C(=O)O)c1cccc(C(F)(F)F)c1` (stereo not drawn) it is 192 to 194 °C.
As for `CCCc1cc(N)on1`, the melting point lay within 54 to 58 °C.
In turn, `Cn1cnnc1C1CCNCC1` yielded a melting point of 181 to 183 °C.
The result for `O=C(NCc1ccc(F)cc1)C1CCNCC1` reads 139 to 141 °C.
The figure for `Cc1cc(C)cc(N(CCC(=O)O)S(=O)(=O)c2ccc(Br)cc2)c1` is 133 to 135 °C; for `FC(F)(F)c1ccc(-n2cccn2)nc1` it is 66 to 68 °C; for `Cn1nc(C(=O)O)cc1-c1ccc2c(c1)OCO2` it is 214 to 216 °C.
The figure for `O=C(O)C1CCOc2ccccc21` (stereo not drawn) is 87 to 89 °C; for `CCOc1cc(Cl)ccc1C#N` it is 81 to 83 °C; for `CC(=O)CC(=O)CCN1C(=O)c2ccccc2C1=O` it is 104 to 106 °C.
As for `Cn1cc[nH]c(=O)c1=O`, the melting point fell in the range of 207 to 209 °C.
The result for `O=C(O)c1ccc(-c2noc(C(F)(F)F)n2)cc1` reads 249 to 251 °C; that for `O=C(O)C1CCCN1C(=O)Nc1ccc(F)cc1` (stereo not drawn), 163 to 165 °C.
The result for `O=C(O)CCn1cc[nH]c(=O)c1=O` reads 239 to 241 °C; that for `O=C(O)CC(Cc1ccccc1)Cc1ccccc1`, 82 to 84 °C; that for `N#CC(C(=O)N1CCCCC1)c1ccc(C(F)(F)F)cn1` (stereo not drawn), 137 to 139 °C.
The figure for `Cc1nnc2c(N)cc(Cl)nn12` is 227 to 229 °C; for `O=[N+]([O-])c1cc(S(=O)(=O)Cl)c(Cl)cc1F` it is 41 to 43 °C.
Turning to `COC(=O)c1cc2ccccc2nc1Cl`, the melting point lay in the range of 82 to 84 °C.
The figure for `CCC(=O)N1CCc2cc(C(=O)O)ccc21` is 228 to 230 °C; for `CNS(=O)(=O)c1ccc(C)c(N)c1` it is 83 to 85 °C.
The result for `O=C(CCl)Nc1ccccc1C(=O)NC1CC1` reads 170 to 172 °C; that for `Nc1ccc(S(=O)(=O)Nc2cccc(Cl)c2)cc1`, 132 to 134 °C.
The figure for `COC(=O)c1cc2c(Br)cccc2[nH]1` is 159 to 161 °C; for `Sc1nnc(-c2ccccc2)n1-c1ccccc1` it is 292 to 294 °C.
`NNC(=O)C(=O)NCc1ccco1` showed a melting point of 158 to 160 °C.
The figure for `Cc1cc(N)nn1-c1cccc(Cl)c1` is 58 to 60 °C.
The result for `CS(=O)(=O)c1ccc(C(=O)O)o1` reads 173 to 175 °C.
The result for `Nc1cc(S(=O)(=O)N2CCOCC2)ccc1N1CCCC1` reads 179 to 181 °C; that for `CN(CC(=O)N1CCCC(C(=O)O)C1)c1ccc(Cl)cn1` (stereo not drawn), 184 to 186 °C.
For the compound `O=C(O)CCCc1ccc2c(c1)CC(=O)N2`, the melting point lay in the range of 180 to 182 °C.
The result for `Nc1ccc(C(=O)N2CCCC2)c(F)c1` reads 139 to 141 °C; that for `O=Cc1ccc(-c2nc3ccccc3s2)o1`, 177 to 179 °C; that for `OC(c1ccccc1)c1cccnc1` (stereo not drawn), 59 to 61 °C.
The result for `N#CCc1cn(-c2ccccc2)nc1-c1ccc(Cl)cc1` reads 126 to 128 °C.
The result for `COc1nc2cc(N)ccc2o1` reads 123 to 125 °C.
Consider `C#Cc1cccc(OC)n1`, for which the melting point fell in the range of 47 to 49 °C.
Compound `Nc1ccccc1-c1nc(C2CC2)n[nH]1` registered a melting point of 213 to 215 °C.
The figure for `CNS(=O)(=O)c1ccc(Cl)c(C(F)(F)F)c1` is 100 to 102 °C; for `O=C(Cc1ccc(Br)cc1)C(F)(F)F` it is 38 to 40 °C; for `COc1cc(C=O)cc(Cl)c1OCC(N)=O` it is 166 to 170 °C.
The result for `O=C(O)c1nc(OCC2CC2)c2ccccc2n1` reads 109 to 111 °C; that for `CN(C)S(=O)(=O)c1ccc2[nH]c(CO)nc2c1`, 232 to 234 °C; that for `Cc1cc(C(=O)CCl)c(C)n1-c1ccc(Cl)c(C(F)(F)F)c1`, 139 to 141 °C.
The figure for `NC(CC(=O)O)c1cnn(-c2ccccc2)c1` (stereo not drawn) is 219 to 221 °C; for `Nc1cc(S(=O)(=O)Nc2ccc(Cl)cc2)ccc1N1CCOCC1` it is 55 to 58 °C.
Regarding `O=Cc1csc(-c2ncccn2)n1`, the melting point lay within 197 to 199 °C.
The figure for `CCOc1cc2nccc(Cl)c2cc1OCC` is 72 to 74 °C.
The figure for `COc1cc2c(cc1/C=C/C(=O)O)OC(C)C2` (stereo not drawn) is 146 to 148 °C; for `Cc1ccc(-c2nnc(C(C)Cl)o2)cc1` (stereo not drawn) it is under 17 °C; for `NC(=O)c1cncn1-c1ccccc1` it is 182 to 184 °C.
The result for `Cc1cc([N+](=O)[O-])ccc1S(N)(=O)=O` reads 155 to 157 °C; that for `O=C(O)c1sccc1-c1ccccc1`, 206 to 208 °C; that for `CN(C)CCNS(=O)(=O)c1ccc(Cl)c([N+](=O)[O-])c1`, 88 to 90 °C.
`COc1ccc(C(=O)NN)cc1Br` showed a melting point of 137 to 139 °C.
On to `N#Cc1cccc(Oc2ccc(Cl)cc2)n1`, for which the melting point was in the range of 86 to 88 °C.
`CNC1CCN(c2cc(OC)cc(OC)c2)C1=O` (stereo not drawn) had a melting point of 73 to 75 °C.
The result for `O=C1CCCc2nc(-c3ccccc3F)sc21` reads 153 to 155 °C; that for `COc1cc(C(=O)O)cc(OC)c1OCc1ccccc1`, 155 to 159 °C; that for `O=C(O)c1ccc2c(c1)-c1ccccc1C2`, 264 to 266 °C.
The figure for `CC(=O)NCCc1cc(C(=O)CCl)ccc1F` is 97 to 99 °C.
`Sc1nnc(Nc2ccccc2)s1` registered a melting point of 160 to 162 °C.
The result for `NC(=O)c1ccc(C=O)cc1` reads 100 to 102 °C; that for `CC(C)c1nc(I)c2ccccn12`, 84 to 86 °C.
The figure for `O=C(CCSc1ccccn1)c1ccc(F)cc1` is 60 to 62 °C; for `O=C(O)c1ccc(Oc2ccc(Br)cc2)nc1` it is 175 to 177 °C; for `Nc1nc(C2CC2)c(C(=O)O)s1` it is 99 to 101 °C.
